The results in this text go back to patent publication US8318812B2, “Therapeutic agents for the treatment of lymphoid malignancies” (The Ohio State University Research Foundation, priority 2006, dated 2012).

In general, pIC50 refers to the negative decadic logarithm of the IC50, by convention in mol/L.

Structures are written as SMILES. pIC50: −log10 of the molar value.

The test system of one assay is PP2A. The experiment in a line: PP2A activity in lysates of Ramos B cell line. Format: cell-based, Human. The method, then: PP2A Activity: The protein phosphatase activity of total cellular lysate was determined by measuring the generation of free PO4 from the threonine phosphopeptide using the malachite green-phosphate complex assay as described by the manufacturer (Upstate, Charlottesville, […].). Cell lysates were prepared in a low detergent lysis buffer (1% Nonidet P-40, 10 mM HEPES, 0.5M NaCl, 10% Glycerol, 1 mM PMSF, 5 mM Benzamidine, 10 μg/ml leupeptin). The phosphatase assay was performed in a PP2A-specific reaction buffer (Upstate) using 750 μM phosphopeptide substrate. After 30-min incubation at 30° C. malachite dye was added, and free phosphate was measured by optical density at 650 nm. To avoid variability among different immunoprecipitated samples, the phosphatase activities were normalized with the amount of PP2A immunoprecipitated, as detected and quantified by western blot analysis of each treatment group.
In order to determine if FTY720 induced activation of PP2A enzyme in CD19^+ B cells from CLL patients were treated with 10 uM FTY720 for 0, 1, 2, 3, 4 and 15 hrs and the PP2A activity in the lysates were quantified using a functional assay following immunoprecipitation of PP2A enzyme. As reported previously in other systems, FTY720 induced a consistent 2-3 fold increase in PP2A activation with the peak response observed at 4 hour post treatment (FIG. 6a). […]

The subject of another assay is primary MCL cells. The experiment in a line: Annexin V/PI toxicity in primary MCL cells. Format: cell-based. Particulars: Homo sapiens, WinNolin sigmoid inhibitory model. The protocol:
(§1) Primary MCL cells were isolated from PBMC (with informed patient consent under a protocol approved by IRB) as described before. All the MCL patients were identified as outlined by the World Health Organization (WHO) classification. Human mantle cell lymphoma patient cell lines (Mino and Jeko) were obtained from Dr. Raymond Lai. Primary cells or MCL cell lines were incubated in RPMI 1640 media, supplemented with 10%-20% heat-inactivated fetal bovine serum, 2 mM L-glutamine and penicillin (100 U/mL)/streptomycin ([…]) at 37° C. in an atmosphere of 5% CO2. FTY720 was synthesized as previously described. Toxicity was determined by flow cytometry using Annexin-V-FITC and Propidium Iodide (PI) staining. Apoptotic cells were identified as Annexin-V+ and/or PI+ cells. Cells excluding both FITC and PI were considered viable. Western Blotting was performed as described previously using indicated antibodies. The PARP (Ab-2) and Caspase 9 antibodies were purchased from Oncogene/Calbiochem/EMD Biosciences (San Diego, Calif.). Cyclin D1, Akt, Actin, Mcl-1, p-ERK, ERK and Bcl-2 were obtained from Santa Cruz biotech (Santa Cruz, Calif.).
(§2) Several therapeutic agents, including fludarabine, chlorambucil, 2-chloro-2-deoxyadenosine and glucocorticoids, induce toxicity in B cell malignancies through activating caspases, the cysteine proteases of CED3/ICE family. […]

The subject of another assay is Akt. The experiment in a line: Western blot of p-Akt and Akt in primary MCL cells. Format: cell-based, Human. The method, then: as §1, with “The PARP (Ab-2) and Caspase 9 antibodies were purchased from Oncogene/Calbiochem/EMD Biosciences (San Diego, Calif.). Cyclin D1, Akt, Actin, Mcl-1, p-ERK, ERK and Bcl-2 were obtained from Santa Cruz biotech (Santa Cruz, Calif.).” left out
FTY720 induced apoptosis is associated with down-modulation of Cyclin D1 and Akt. […] To determine if the FTY720 induced apoptosis is mediated through modulation of these targets relevant to the pathogenesis of the disease, we evaluated the effect of FTY720 on levels of Cyclin D1, p-Akt and Akt proteins by Wester Blotting analysis using specific antibodies in primary MCL cells and cell lines. […]
On the technique in general: Immunoblotting shows a protein as a band on a membrane.

For a further assay, the system named is PARP. As to the kind of experiment: Western blot of PARP processing in Mino cells. Type of assay: cell-based, Human. Particulars: Mino cells 24 hrs post treatment. The method, then:
as §1, §2

Take `CCCCCCCCc1ccc(CCC(N)(CO)CO)cc1.Cl` [FTY720, 2-Amino-2-[2-(4-octylphenyl)ethyl]propane 1,3-diol hydrochloride]: in the assay on PP2A, the “earliest time of FTY720 induced PP2A activation” value is 3 h. This molecule showed a pIC50 with primary MCL cells of 4.97. The p-Akt level entry in the assay with Akt is given as “decrease in p-Akt”. In the assay on PARP, the PARP processing entry is “PARP processing comparable to the levels seen with Fludarabine”.
